{
  "source": "patent US7410635B2",
  "about": "(priority 2003, dated 2008)",
  "settings": "pH 3",
  "data": [
    {"smiles": "C=CCC1(CC(C)C)C(=O)NC(=O)NC1=O", "note": "[Butalbital, 5-(2-Methylpropyl)-5-(2-propenyl)-2,4,6(1H,3H,5H) -pyrim idinetrione]", "values": [
      {"measurement": "average degradation", "value": 1.2, "unit": "%"}
    ]}
  ]
}
